# Read-outs that look alike come from different tables or passages of the source.
# Tests used:
# MCF-7 cells = assay: Test 1: growth inhibition of MCF-7 human breast cancer cells; format: cell-based; conditions: read-out: GI50 (50% growth inhibition concentration)
# Description: Used in the test were MCF-7 cells which were established from human breast cancer and were cultured routinely under the conditions of 37° C. and 5% CO2, in MEM medium supplemented with 10% fetal calf serum, 25 mM of HEPES and 0.1 mg/ml of kanamycin. The MCF-7 cells in a logarithmic growth phase were treated with trypsin/EDTA to prepare single cell suspension adjusted to 4.0×10^4 cells/ml in MEM medium (supplemented with 10% fetal calf serum, 25 mM of HEPES and 0.1 mg/ml of kanamycin). Test compounds were dissolved in DMSO and diluted with RPMI 1640 medium (supplemented with 10% fetal calf serum, 25 mM of HEPES and 0.1 mg/ml of kanamycin) to a concentration of 2.0×10^−4-2.0×10^−9 M.
# The cell suspension was filled in a 96-wells microplate at a rate of 0.1 ml per well and was cultured for 24 hours so as to make the cells adhered to the microplate. Then, it was added with 0.1 ml of the sample solution and cultured at 37° C. for 72 hours in 5% CO2.
# 50% Growth inhibition concentrations (GI50 μM) were calculated from growth inhibitions at various sample concentrations.
# [1] = Homo sapiens, MCF7, 72 hours culture with sample
Structure (SMILES),melting point,GI50 (MCF-7 cells; [1]) [nM],GI50 (MCF-7 cells; 72 hours culture with sample) [nM]
"C[C@@H]1OCCN(c2cc(N3CCOCC3)nc(-n3c(N)nc4ccccc43)n2)[C@@H]1C (relative stereo) [Example 2, 2-(2-aminobenzimidazol-1-yl)-4-(cis-2,3-dimethylmorpholino)-6-morpholinopyrimidine]",129 to 133 °C,,
"C[C@@H]1OCCN(c2cc(N3CCOCC3)nc(-n3c(C(F)F)nc4ccccc43)n2)[C@@H]1C (relative stereo) [compound 1, 2-(2-difluoromethylbenzimidazol-1-yl)-4-(cis-2,3-dimethylmorpholino)-6-morpholinopyrimidine]",167 to 169 °C,110,
"C[C@@H]1OCCN(c2cc(N3CCOCC3)nc(-n3c(C(F)F)nc4ccccc43)n2)[C@H]1C (relative stereo) [compound 4, 2-(2-difluoromethylbenzimidazol-1-yl)-4-(trans-2,3-dimethylmorpholino)-6-morpholinopyrimidine]",,180,
"C[C@@H]1OCCN(c2cc(N3CCOCC3)nc(-n3c(CF)nc4ccccc43)n2)[C@@H]1C (relative stereo) [compound 9, 4-(cis-2,3-dimethylmorpholino)-2-(2-fluoromethylbenzimidazol-1-yl)-6-morpholinopyrimidine]",163 to 165 °C,200,
"C[C@@H]1OCCN(c2cc(N3CCOCC3)nc(-n3c(CO)nc4ccccc43)n2)[C@@H]1C (relative stereo) [compound 10, 4-(cis-2,3-dimethylmorpholino)-2-(2-hydroxymethylbenzimidazol-1-yl)-6-morpholinopyrimidine]",125 to 128 °C,130,
"C[C@@H]1OCCN(c2cc(N3CCCCC3)nc(-n3c(CO)nc4ccccc43)n2)[C@@H]1C (relative stereo) [compound 11, 4-(cis-2,3-dimethylmorpholino)-2-(2-hydroxymethylbenzimidazol-1-yl)-6-piperidinopyrimidine]",141 to 143 °C,200,
"C[C@@H]1OCCN(c2cc(N3CCCC3CO)nc(-n3c(CO)nc4ccccc43)n2)[C@@H]1C (relative stereo) [compound 12, 4-(cis-2,3-dimethylmorpholino)-2-(2-hydroxymethylbenzimidazol-1-yl)-6-(2-hydroxymethylpyrrolidin-1-yl)pyrimidine]",104 to 108 °C,390,
"C[C@@H]1OCCN(c2nc(N3CCOCC3)nc(-n3c(C(F)F)nc4ccccc43)n2)[C@@H]1C (relative stereo) [compound 13, 2-(2-difluoromethylbenzimidazol-1-yl)-4-(cis-2,3-dimethylmorpholino)-6-morpholino-1,3,5-triazine]",207 to 210 °C,,
"FC(F)c1nc2ccccc2n1-c1nc(N2CCOCC2)cc(N2CCOCC2)n1 [compound 2, 2-(2-difluoromethylbenzimidazol-1-yl)-4,6-dimorpholinopyrimidine]",201 to 202 °C,210,
"FC(F)c1nc2ccccc2n1-c1nc(N2CCOCC2)cc(N2CCSCC2)n1 [compound 3, 2-(2-difluoromethylbenzimidazol-1-yl)-4-morpholino-6-thiomorpholinopyrimidine]",173 to 175 °C,380,
"CC1(C)CN(c2cc(N3CCOCC3)nc(-n3c(C(F)F)nc4ccccc43)n2)CCO1 [compound 5, 2-(2-difluoromethylbenzimidazol-1-yl)-4-(2,2-dimethylmorpholino)-6-morpholinopyrimidine]",149 to 152 °C,220,
"CC1CN(c2cc(N3CCOCC3)nc(-n3c(C(F)F)nc4ccccc43)n2)CCO1 (stereo not shown) [compound 6, 2-(2-difluoromethylbenzimidazol-1-yl)-4-(2-methylmorpholino)-6-morpholinopyrimidine]",,290,
"C[C@H]1COC(C)(C)CN1c1cc(N2CCOCC2)nc(-n2c(C(F)F)nc3ccccc32)n1 [compound 8, 2-(2-difluoromethylbenzimidazol-1-yl)-4-morpholino-6-[2,2,5(S)-trimethylmorpholino]pyrimidine]",113 to 116 °C,320,
"CC1(C)CN(c2nc(N3CCOCC3)nc(-n3c(C(F)F)nc4ccccc43)n2)CCO1 [compound 15, 2-(2-difluoromethylbenzimidazol-1-yl)-4-(2,2-dimethylmorpholino)-6-morpholino-1,3,5-triazine]",176 to 178 °C,130,

# Continued, values first:
melting point,GI50 (MCF-7 cells; [1]) [nM],GI50 (MCF-7 cells; 72 hours culture with sample) [nM],Structure (SMILES)
,180,,"C[C@@H]1CO[C@@H](C)CN1c1nc(N2CCOCC2)nc(-n2c(C(F)F)nc3ccccc32)n1 (relative stereo) [compound 18, 2-(2-difluoromethylbenzimidazol-1-yl)-4-(trans-2,5-dimethylmorpholino)-6-morpholino-1,3,5-triazine]"
150 to 153 °C,190,,"CC(=O)Nc1nc2ccccc2n1-c1nc(N2CCOCC2)cc(N2CCO[C@@H](C)[C@@H]2C)n1 (relative stereo) [compound 23, 2-(2-acetylaminobenzimidazol-1-yl)-4-(trans-2,3-dimethylmorpholino)-6-morpholinopyrimidine]"
,190,,"CCC(=O)Nc1nc2ccccc2n1-c1nc(N2CCOCC2)nc(N2CCO[C@@H](C)[C@@H]2C)n1 (relative stereo) [compound 25, 2-(2-propionylaminobenzimidazol-1-yl)-4-(trans-2,3-dimethylmorpholino)-6-morpholino-1,3,5-triazine]"
,< 40,,"C[C@@H]1OCCN(c2nc(N3CCOCC3)nc(-n3c(NC=O)nc4ccccc43)n2)[C@H]1C (relative stereo) [compound 26, 2-(trans-2,3-dimethylmorpholino)-4-(2-formylaminobenzimidazol-1-yl)-6-morpholino-1,3,5-triazine]"
143 to 146 °C,160,,"C[C@@H]1OCCN(c2cc(N3CCOCC3)nc(-n3c(NC=O)nc4ccccc43)n2)[C@H]1C (relative stereo) [compound 27, 4-(trans-2,3-dimethylmorpholino)-2-(2-formylaminobenzimidazol-1-yl)-6-morpholinopyrimidine]"
151 to 155 °C,250,,"C[C@@H]1OCCN(c2cc(N3CCOCC3)nc(-n3c(N)nc4ccccc43)n2)[C@@H]1C.Cl (relative stereo) [compound 30, 2-(2-aminobenzimidazol-1-yl)-4-(cis-2,3-dimethylmorpholino)-6-morpholinopyrimidine hydrochloride]"
155 to 158 °C (dec.),290,,"C[C@@H]1OCCN(c2cc(N3CCOCC3)nc(-n3c(C(F)F)nc4ccc(N)cc43)n2)[C@@H]1C (relative stereo) [compound 36, 2-(6-amino-2-difluoromethylbenzimidazol-1-yl)-4-(2,3-cis-dimethylmorpholino)-6-morpholinopyrimidine]"
170 to 175 °C (dec.),90,,"C[C@@H]1OCCN(c2nc(N3CCOCC3)nc(-n3c(C(F)F)nc4cc(O)ccc43)n2)[C@@H]1C (relative stereo) [compound 37, 2-(2-difluoromethyl-5-hydroxybenzimidazol-1-yl)-4-(2,3-cis-dimethylmorpholino)-6-morpholino-1,3,5-triazine]"
,2200,,"C[C@@H]1OCCN(c2cc(N3CCOCC3)nc(-n3cnc4ccccc43)n2)[C@H]1C (relative stereo) [compound A, 2-(benzimidazol-1-yl)-4-(trans-2,3-dimethylmorpholino)-6-morpholinopyrimidine]"
,350,,"FC(F)c1nc2ccccc2n1-c1nc(N2CCOCC2)nc(N2CCSCC2)n1 [compound 16, 2-(2-difluoromethylbenzimidazol-1-yl)-4-morpholino-6-thiomorpholino-1,3,5-triazine]"
188 to 191 °C,120,,"CC1CN(c2nc(N3CCOCC3)nc(-n3c(C(F)F)nc4ccccc43)n2)CCO1 (stereo not shown) [compound 17, 2-(2-difluoromethylbenzimidazol-1-yl)-4-(2-methylmorpholino)-6-morpholino-1,3,5-triazine]"
,,340,"[O-][S+]1CCN(c2nc(N3CCOCC3)nc(-n3c(C(F)F)nc4ccccc43)n2)CC1 [compound 21, 2-(2-difluoromethylbenzimidazol-1-yl)-4-morpholino-6-(tetrahydro-1,4-thiazin-1-oxo-4-yl)-1,3,5-triazine]"
242 to 244 °C,,,"C[C@@H]1CN(c2nc(N3CCOCC3)nc(-n3c(NC=O)nc4ccccc43)n2)C[C@H](C)O1 [compound 28, 2-(cis-2,6-dimethylmorpholino)-4-(2-formylaminobenzimidazol-1-yl)-6-morpholino-1,3,5-triazine]"
,3700,,"Cc1nc2ccccc2n1-c1nc(N2CCOCC2)nc(N2CCOCC2)n1 [compound B, 2-(2-methylbenzimidazol-1-yl)-4,6-dimorpholino-1,3,5-triazine, reference compound]"
,20000,,"c1cn(-c2nc(N3CCOCC3)nc(N3CCOCC3)n2)cn1 [compound C, 2-(imidazol-1-yl)-4,6-dimorpholino-1,3,5-triazine, reference compound]"
,> 100000,,"CN(C)c1nc(N(C)C)nc(N(C)C)n1 [compound D, hexamethylmelamine, reference compound]"
